Calls of active or inactive are those of the source. The calls are words filed in the database; no cut-off is given here.
Experiments:
[1] = tested on: Lassa virus; assay: Antiviral activity against Lassa virus pseudovirions infected in HEK293T/17 cells after 72 hrs by luciferase reporter gene assay; type: functional, organism-based; conditions: Mammarenavirus lassaense, HEK-293T
[2] = tested on: Guanarito virus; assay: Antiviral activity against Guanarito virus pseudovirions infected in HEK293T/17 cells after 72 hrs by luciferase reporter gene assay; type: functional, cell-based; conditions: Mammarenavirus guanaritoense, HEK-293T
[3] = tested on: Lassa virus; assay: Antiviral activity against Lassa virus infected in guinea pig strain 13 assessed as host survival rate at 25 mg/kg/day, ip administered at 1 hr prior to infection for 14 days relative to control; type: functional, Mammarenavirus lassaense; conditions: route intraperitoneal
[4] = tested on: Junin virus; assay: Antiviral activity against Junin virus pseudovirions infected in HEK293T/17 cells after 72 hrs by luciferase reporter gene assay; type: functional, organism-based; conditions: Mammarenavirus juninense, HEK-293T
[5] = tested on: Sabia virus; assay: Antiviral activity against Sabia virus pseudovirions infected in HEK293T/17 cells after 72 hrs by luciferase reporter gene assay; type: functional, cell-based; conditions: HEK-293T
[6] = tested on: Lassa virus; assay: Antiviral activity against Lassa virus infected in guinea pig strain 13 assessed as reduction in viral titre in plasma at 25 mg/kg/day, ip administered at 1 hr prior to infection for 14 days relative to control; type: functional, Mammarenavirus lassaense; conditions: route intraperitoneal
[7] = tested on: Machupo mammarenavirus; assay: Antiviral activity against Machupo virus pseudovirions infected in HEK293T/17 cells after 72 hrs by luciferase reporter gene assay; type: functional, cell-based; conditions: Mammarenavirus machupoense, HEK-293T
[8] = tested on: Lassa virus; assay: Antiviral activity against Lassa virus pseudovirions infected in HEK293T/17 cells at 50 uM after 72 hrs by luciferase reporter gene assay; type: functional, organism-based; conditions: Mammarenavirus lassaense, HEK-293T
[9] = tested on: Lassa virus; assay: Antiviral activity against Lassa virus infected in guinea pig strain 13 assessed as host survival rate at 80 mg/kg/day, ip administered at 1 hr prior to infection for 14 days relative to control; type: functional, Mammarenavirus lassaense; conditions: route intraperitoneal

SMILES | EC50 [1] [nM] | other results
CC(C)c1ccc(CNc2ccc3c(c2)ncn3-c2ccc(OCCc3ccccc3)cc2)cc1 | 43 | –
COc1ccc(-n2cnc3cc(NCc4ccc(OC)c(OC)c4)ccc32)cc1 | 700 | –
COc1ccc(-n2cnc3cc(NCc4ccc(OCCN(C)C)cc4)ccc32)cc1 | 3300 | –
CCOc1ccc(-n2cnc3cc(NCc4ccc(C)nc4)ccc32)cc1 | 240 | –
CC(C)c1ccc(CNc2ccc3c(c2)ncn3-c2ccccc2)cc1 | 5.2 | –
CC(C)c1ccc(CNc2ccc3c(c2)ncn3-c2ccc(C(C)(C)C)cc2)cc1 | 4 | –
CCOc1ccc(-n2cnc3cc(NCc4ccc(CC(=O)O)cc4)ccc32)cc1 | 1300 | –
COc1ccc(-n2cnc3cc(NCc4ccc(C(C)C)cc4)ccc32)cc1 | 1.4 | EC50 [2]: 0.44 nM; Activity [3]: 63%; EC50 [4]: 0.62 nM; EC50 [5]: 21 nM; fold change (FC) [6]: 2; EC50 [7]: 3.1 nM
COc1ccc(-n2cnc3cc(NCc4cccc5ccccc45)ccc32)cc1 | 69 | –
COc1ccc(-n2cnc3cc(NCc4cccc(OC)c4)ccc32)cc1 | 35 | –
COc1ccc(-n2cnc3cc(NCc4ccc(CN5CCOCC5)cc4)ccc32)cc1 | 790 | –
CCCNc1ccc2c(c1)ncn2-c1ccc(OC)cc1 | – | Activity [8]: inactive
COc1ccc(CNc2ccc3c(c2)ncn3-c2ccc(OC)cc2)cc1 | 11 | EC50 [2]: 5.6 nM; EC50 [4]: 7.7 nM; EC50 [5]: 110 nM; EC50 [7]: 45 nM
CCc1ccc(CNc2ccc3c(c2)ncn3-c2ccc(OC)nn2)cc1 | 81 | –
CC(C)c1ccc(CNc2ccc3c(c2)ncn3-c2ccc(OC(C)(C)C)cc2)cc1 | 8.6 | –
CC(C)c1ccc(CNc2ccc3c(c2)ncn3-c2ccc(Oc3ccc4ccccc4c3)cc2)cc1 | 540 | –
COc1ccc(-n2cnc3cc(NCc4ccc(Cl)cc4)ccc32)cc1 | 47 | –
CCCCOc1ccc(-n2cnc3cc(NCc4ccc(C(C)C)cc4)ccc32)cc1 | 5.6 | –
CCc1ccc(CNc2ccc3c(c2)ncn3-c2ccc(OC)cn2)cc1 | 5.8 | –
CC(C)c1ccc(CNc2ccc3ncn(-c4ccc(OC(C)(C)C)cc4)c3c2)cc1 | 180 | –
CCc1ccc(CNc2ccc3c(c2)ncn3-c2ccc(OC)nc2)cc1 | 32 | –
CCc1ccc(-n2cnc3cc(NCc4ccc(C(C)C)cc4)ccc32)cc1 | 1.9 | –
CCc1ccc(CNc2ccc3c(c2)ncn3-c2ccc(OC)cc2)cc1 | 1.2 | –
COc1ccc(-n2cnc3cc(NCc4ccccc4O)ccc32)cc1 | 310 | –
COc1ccc(-n2cnc3cc(NCc4ccc(C(C)(C)C)cc4)ccc32)cc1 | 1.1 | –
COc1ccc(-n2cnc3cc(N(Cc4ccc(C(C)C)cc4)S(=O)(=O)c4ccc(C)cc4)ccc32)cc1 | 110 | EC50 [4]: 16 nM; EC50 [5]: 510 nM; EC50 [7]: 40 nM

SMILES | EC50 [1] [nM] | other results
COc1ccc(-n2cnc3cc(NCc4ccco4)ccc32)cc1 | 1200 | –
COc1ccc(-n2cnc3cc(NCc4ccc(OC(C)(C)C)cc4)ccc32)cc1 | 5.2 | –
CCOc1ccc(CNc2ccc3c(c2)ncn3-c2ccc(OC)cc2)cc1 | 4 | –
COc1ccc(-n2cnc3cc(NCc4ccc(CN(C)C)cc4)ccc32)cc1 | 270 | –
COc1ccc(-n2cnc3cc(N(C)Cc4ccc(C(C)C)cc4)ccc32)cc1 | 57 | –
CNc1ccc2c(c1)ncn2-c1ccc(OC)cc1 | – | Activity [8]: inactive
COc1ccc(-n2cnc3cc(NCc4ccc(Oc5ccccc5)cc4)ccc32)cc1 | 380 | –
COc1ccc(-n2cnc3cc(N(Cc4ccc(C(C)C)cc4)C(C)=O)ccc32)cc1 | 380 | –
CCCCc1ccc(CNc2ccc3c(c2)ncn3-c2ccc(OC)cc2)cc1 | 1.5 | –
CCc1ccc(CNc2ccc3c(c2)ncn3-c2cnc(OC)nc2)cc1 | 450 | –
NC(=O)c1ncn([C@@H]2O[C@H](CO)[C@@H](O)[C@H]2O)n1 [RIBAVIRIN] | – | Activity [9]: 0%
COc1ccc(-n2cnc3cc(NCc4ccc(CN5CCCCC5)cc4)ccc32)cc1 | 1400 | –
COc1ccc(-n2cnc3cc(NCc4ccccc4OC)ccc32)cc1 | 460 | –
COc1ccc(-n2cnc3cc(NCc4cccc(OC)c4OC)ccc32)cc1 | 160 | –
COc1ccc(-n2cnc3cc(NCc4ccc(Cc5ccccc5)cc4)ccc32)cc1 | 46 | –
CCOc1ccc(-n2cnc3cc(NCc4cnc(CC)nc4)ccc32)cc1 | 450 | –
CCOc1ccc(-n2cnc3cc(CNc4ccc(CC)cc4)ccc32)cc1 | 11 | EC50 [4]: 5 nM; EC50 [5]: 43 nM; EC50 [7]: 12 nM
CCCCOc1ccc(CNc2ccc3c(c2)ncn3-c2ccc(OC)cc2)cc1 | 6 | –
CCCCc1ccc(-n2cnc3cc(NCc4ccc(C(C)C)cc4)ccc32)cc1 | 4.4 | –
COc1ccc(-n2cnc3cc(NC(=O)c4ccc(C)cc4)ccc32)cc1 | > 50000 | –
CC(C)c1ccc(CNc2ccc3c(c2)ncn3-c2ccc(Cc3ccccc3)cc2)cc1 | 120 | –
CC(C)c1ccc(CNc2ccc3c(c2)ncn3-c2ccc(Oc3ccccc3)cc2)cc1 | 130 | –
COc1ccc(-n2cnc3cc(NCc4ccc(CN5CCN(C)CC5)cc4)ccc32)cc1 | 16000 | –
Cc1ccc(CNc2ccc3c(c2)ncn3C2CCCCC2)cc1 | 320 | –
CCOc1ccc(-n2cnc3cc(NCc4ccc(C)cn4)ccc32)cc1 | 350 | –

Reference: ChEMBL document CHEMBL2321741, “Discovery and optimization of potent broad-spectrum arenavirus inhibitors derived from benzimidazole” (Bioorg Med Chem Lett, 2013)
